Consider four molecules from ChEMBL document CHEMBL1154288, “The discovery and unique pharmacological profile of RO4938581 and RO4882224 as potent and selective GABAA alpha5 inverse agonists for the treatment of cognitive dysfunction” (Bioorg Med Chem Lett, 2009).

Series [1] is described as follows: Half life in rat. It counts as ADME, organism-based. To be noted: in vivo.
The nature of series [2]: Permeability by PAMPA. To be noted: read-out: permeability. It is filed as ADME.
The nature of series [3]: Volume of distribution at steady state in rat. It counts as ADME, organism-based. To be noted: in vivo, read-out: Vdss.
A short description of series [4]: Oral bioavailability in rat. It is filed as ADME, organism-based. To be noted: in vivo.
Series [5] deals with GABA-A receptor; alpha-1/beta-2/gamma-2 (Rattus norvegicus) (UniProt P18508+P62813+P63138). Kind of series: Inverse agonist activity at rat GABA alpha-1-beta-3-gamma-2 receptor expressed in HEK293 cells by electrophysiology assay relative to GABA. It counts as functional, cell-based.
Series [6] is described as follows: Lipophilicity, log D at pH 7.4. It is filed as physicochemical. The note with it: buffer.
Series [7] concerns the target T1, GABA-A receptor; alpha-5/beta-3/gamma-2 (Homo sapiens, UniProt P18507+P28472+P31644).
T1 sequence (P18507 whole entry): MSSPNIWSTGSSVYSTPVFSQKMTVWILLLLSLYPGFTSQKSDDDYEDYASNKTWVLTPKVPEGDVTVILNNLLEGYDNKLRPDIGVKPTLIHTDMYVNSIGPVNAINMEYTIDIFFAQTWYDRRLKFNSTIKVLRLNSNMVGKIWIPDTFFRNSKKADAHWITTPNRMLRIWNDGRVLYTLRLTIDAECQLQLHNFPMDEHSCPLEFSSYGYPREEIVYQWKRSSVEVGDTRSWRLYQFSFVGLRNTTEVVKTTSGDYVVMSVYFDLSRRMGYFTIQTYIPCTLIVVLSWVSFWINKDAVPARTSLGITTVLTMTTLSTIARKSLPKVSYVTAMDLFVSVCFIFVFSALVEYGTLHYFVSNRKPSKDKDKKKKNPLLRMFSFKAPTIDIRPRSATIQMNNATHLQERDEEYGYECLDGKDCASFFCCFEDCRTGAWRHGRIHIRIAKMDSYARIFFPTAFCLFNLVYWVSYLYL
T1 sequence (P28472 whole entry): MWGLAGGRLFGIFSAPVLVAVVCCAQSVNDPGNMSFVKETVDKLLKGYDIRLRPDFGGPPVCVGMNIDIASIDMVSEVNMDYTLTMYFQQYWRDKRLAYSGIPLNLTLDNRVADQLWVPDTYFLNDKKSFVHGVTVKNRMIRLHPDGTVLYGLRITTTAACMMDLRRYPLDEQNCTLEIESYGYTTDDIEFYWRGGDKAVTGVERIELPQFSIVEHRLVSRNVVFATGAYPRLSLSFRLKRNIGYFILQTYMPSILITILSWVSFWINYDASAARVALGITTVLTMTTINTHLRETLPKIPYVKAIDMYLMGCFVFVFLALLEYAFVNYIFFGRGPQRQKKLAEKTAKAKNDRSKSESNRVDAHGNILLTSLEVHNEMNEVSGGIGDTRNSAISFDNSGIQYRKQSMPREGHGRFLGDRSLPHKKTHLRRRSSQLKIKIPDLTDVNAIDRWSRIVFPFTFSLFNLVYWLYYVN
T1 sequence (P31644 whole entry): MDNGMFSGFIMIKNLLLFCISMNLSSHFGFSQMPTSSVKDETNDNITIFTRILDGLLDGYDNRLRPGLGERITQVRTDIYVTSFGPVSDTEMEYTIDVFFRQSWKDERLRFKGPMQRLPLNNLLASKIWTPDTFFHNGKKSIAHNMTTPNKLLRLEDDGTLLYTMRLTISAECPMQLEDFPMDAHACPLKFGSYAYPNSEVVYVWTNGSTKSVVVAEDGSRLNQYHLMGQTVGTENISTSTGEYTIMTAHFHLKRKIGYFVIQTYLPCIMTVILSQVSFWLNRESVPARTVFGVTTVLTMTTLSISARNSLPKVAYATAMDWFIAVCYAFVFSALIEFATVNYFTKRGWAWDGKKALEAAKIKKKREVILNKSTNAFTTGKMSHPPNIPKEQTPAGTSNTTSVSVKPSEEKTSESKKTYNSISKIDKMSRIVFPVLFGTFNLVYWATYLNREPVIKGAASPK
As to the kind of experiment: Displacement of [3H]Flumazenil from cloned human GABA alpha-5-beta-3-gamma-2 receptor expressed in HEK293 cells. It counts as cell-based.

Series [8] addresses T2, GABA-A receptor; alpha-1/beta-3/gamma-2 (Homo sapiens, UniProt P14867+P18507+P28472).
T2 sequence (P14867 whole entry): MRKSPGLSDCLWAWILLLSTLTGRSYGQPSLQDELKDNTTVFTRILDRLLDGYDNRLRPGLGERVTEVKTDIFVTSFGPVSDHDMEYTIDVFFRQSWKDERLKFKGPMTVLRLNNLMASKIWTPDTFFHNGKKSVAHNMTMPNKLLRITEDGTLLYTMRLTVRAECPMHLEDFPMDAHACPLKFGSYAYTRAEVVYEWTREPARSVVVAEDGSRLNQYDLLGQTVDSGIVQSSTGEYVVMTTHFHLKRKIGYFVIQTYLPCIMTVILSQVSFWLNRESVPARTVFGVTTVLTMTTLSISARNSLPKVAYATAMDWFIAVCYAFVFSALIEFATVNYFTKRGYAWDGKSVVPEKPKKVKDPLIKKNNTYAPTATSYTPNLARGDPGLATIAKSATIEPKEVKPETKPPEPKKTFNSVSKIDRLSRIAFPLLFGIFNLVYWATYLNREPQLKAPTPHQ
T2 sequence (P18507 whole entry): T1 sequence (P18507 whole entry)
T2 sequence (P28472 whole entry): T1 sequence (P28472 whole entry)
As to the kind of experiment: Displacement of [3H]Flumazenil from cloned human GABA alpha-1-beta-3-gamma-2 receptor expressed in HEK293 cells. It counts as cell-based.

In series [9] the target is GABA A receptor alpha-2/beta-2/gamma-2 (Rattus norvegicus) (UniProt P18508+P23576+P63138). As to the kind of experiment: Inverse agonist activity at rat GABA alpha-2-beta-3-gamma-2 receptor expressed in HEK293 cells by electrophysiology assay relative to GABA. It counts as functional, cell-based.
Series [10] concerns the target Gamma-aminobutyric acid receptor subunit alpha-3 (Rattus norvegicus) (UniProt P20236). Kind of series: Inverse agonist activity at rat GABA alpha-3-beta-3-gamma-2 receptor expressed in HEK293 cells by electrophysiology assay relative to GABA. It is filed as functional, cell-based.
Series [11] is described as follows: Clearance in rat. It is filed as ADME, organism-based. To be noted: in vivo.
The nature of series [12]: Solubility by lypophlisation solubility assay. It counts as physicochemical.
The nature of series [13]: Ratio of drug level in brain to plasma in rat. It is filed as ADME.
Series [14] concerns the target GABA A receptor alpha-5/beta-3/gamma-2 (Rattus norvegicus) (UniProt P18508+P19969+P63079). As to the kind of experiment: Inverse agonist activity at rat GABA alpha-5-beta-3-gamma-2 receptor expressed in HEK293 cells by electrophysiology assay relative to GABA. It counts as functional, cell-based.
For series [15], the system named is HEK293. As to the kind of experiment: Selectivity ratio of Ki for cloned human GABA alpha-1-beta-3-gamma-2 receptor expressed in HEK293 cells to Ki for cloned human GABA alpha-5-beta-3-gamma-2 receptor expressed in HEK293 cells. It counts as cell-based.
Series [16] deals with HEK293. Kind of series: Selectivity ratio of Ki for cloned human GABA alpha-3-beta-3-gamma-2 receptor expressed in HEK293 cells to Ki for cloned human GABA alpha-5-beta-3-gamma-2 receptor expressed in HEK293 cells. It counts as cell-based.

Each structure is given as a SMILES string. In brackets after ≈: the same amount, converted by molar mass.

Sequence of Gamma-aminobutyric acid receptor subunit alpha-3 (Rattus norvegicus) (P20236 whole entry): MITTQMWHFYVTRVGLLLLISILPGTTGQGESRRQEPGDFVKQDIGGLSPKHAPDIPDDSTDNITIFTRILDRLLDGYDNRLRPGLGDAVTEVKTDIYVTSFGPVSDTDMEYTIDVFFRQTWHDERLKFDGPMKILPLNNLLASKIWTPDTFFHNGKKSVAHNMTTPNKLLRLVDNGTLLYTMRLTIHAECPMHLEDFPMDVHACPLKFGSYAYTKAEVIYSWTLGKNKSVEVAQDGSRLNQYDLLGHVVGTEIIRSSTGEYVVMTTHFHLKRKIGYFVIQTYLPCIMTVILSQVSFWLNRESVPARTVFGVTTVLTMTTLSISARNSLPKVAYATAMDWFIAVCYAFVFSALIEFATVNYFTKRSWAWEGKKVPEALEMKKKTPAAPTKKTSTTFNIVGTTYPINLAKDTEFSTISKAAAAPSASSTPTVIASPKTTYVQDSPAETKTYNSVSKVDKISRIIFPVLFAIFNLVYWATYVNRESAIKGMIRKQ

As usually defined, the half-life is the time needed for the level to fall by half in the phase considered. For orientation: bioavailability means the share of a dose that reaches the circulation, judged against a reference dose that is usually intravenous. The low end stands for little systemic uptake, the high end for much systemic uptake. As a reminder, the logD is the decadic logarithm of the distribution of all forms, ionised or not, between an organic phase and buffer at a given pH. Read a low logD as a more hydrophilic compound. What is called Ki is the equilibrium dissociation constant of an inhibitor or competing ligand from its target. The low end stands for a stronger hold on the target, the high end for a looser hold on the target. The clearance is a measure of how efficiently the substance is removed, as volume per time. A low value points to a low capacity for elimination. Usually solubility stands for the dissolved amount per volume that the medium holds. By Kp is commonly meant tissue or fluid exposure divided by exposure in the circulation. Regarding `FC(F)c1ncn2c1Cn1ncnc1-c1cc(Br)ccc1-2`, in series [1], the half-life was 4.9 h. Besides, the Papp in [2] turned out to be 7 ×10⁻⁶ cm/s. Besides, the Vd in series [3] amounted to 1.2 L/kg. The bioavailability in [4] was 89%. The Efficacy in [5] was -3%; in series [9] it was -4%; in series [10] it was 2%; in [14] it was -35%. This molecule displayed a logD in series [6] of 1.9. Moreover, the results for the Ki in [7] and in series [8] were 4.6 nM and 174 nM, respectively. The same molecule returned a clearance in [11] of 2.9 mL/min/kg. The solubility in series [12] was 19 µg/mL (≈ 54 µM). Moreover, the Kp in [13] amounted to 0.4.
Regarding `Cc1ncn2c1Cn1ncnc1-c1cc(Cl)ccc1-2`, the half-life in series [1] was 3.4 h. In series [2], the Papp is 8.9 ×10⁻⁶ cm/s. Besides, the Vd in [3] is 1.9 L/kg. Further, in [4], the bioavailability came to 52%. In addition, the Efficacy in series [5] was -11%; in [9], -2%; in [10], 4%; in [14], -41%. This molecule also yielded a logD in series [6] of 2. For the same molecule, the Ki in [7] came out at 3 nM; in series [8], 18 nM. In series [11], this molecule showed a clearance of 7.2 mL/min/kg. Also, the Ratio Ki was 6 in [15] and 88 in series [16]. Moreover, in series [12], the concentration in solution (solubility) was 13 µg/mL (≈ 47.8 µM). Further, the Kp in [13] was determined as 0.6.
`Clc1ncn2c1Cn1ncnc1-c1cc(Br)ccc1-2`: the half-life in series [1] was 1.6 h. Also, the Papp in series [2] amounted to 7 ×10⁻⁶ cm/s. The Vd in series [3] was determined as 1.3 L/kg. The same molecule registered a bioavailability in series [4] of 56%. For the same molecule, the Efficacy in series [5] is -13%; in series [9] it was -25%; in series [10] it was -14%; in [14], -48%. This molecule also showed a log distribution coefficient (logD) in series [6] of 2.2. Besides, the Ki in [7] amounted to 1.4 nM; in [8], 33 nM. Further, the clearance in [11] was 9.7 mL/min/kg. The figures for the Ratio Ki in series [15] and in series [16] were 24 and 7, respectively. Further, in [12], the solubility worked out at 9 µg/mL (≈ 26.7 µM).
For `Clc1ccc2c(c1)-c1ncnn1Cc1c(Cl)ncn1-2`, the half-life in series [1] was 0.6 h. In [2], the Papp stood at 6.5 ×10⁻⁶ cm/s. Besides, in series [3], the Vd stood at 0.5 L/kg. In series [4], the bioavailability amounted to 81%. Also, the Efficacy is -3% in series [5], -9% in series [9], -11% in series [10] and -40 in series [14]. Besides, the logD in [6] was found to be 1.8. Moreover, the values for the Ki in series [7] and in [8] were 2 nM and 15 nM, respectively. Also, the clearance in series [11] came to 12.4 mL/min/kg. The Ratio Ki in series [15] and in series [16] was 7 throughout. Besides, the solubility in [12] worked out at 27 µg/mL (≈ 92.4 µM). The Kp in [13] came out at 0.2.
